Patent US8450357B2, “Compositions comprising an aryl pyrazole and/or a formamidine, methods and uses thereof” (Merial Limited, priority 2008, dated 2013)
Like-named read-outs stand apart in the source and are kept apart here.

Key:
Format in all cases: in vivo
[1] = system: adult Rhipicephalus sanguineus ticks; experiment: whole plant or invertebrate; details: for Synergistic Ratio (EC50): EC50 alone divided by EC50 with Amitraz (12.5 ppm); for Synergistic Ratio (EC90): EC90 alone divided by EC90 with Amitraz (12.5 ppm); for mortality at 0.0016 ppm / mortality at 0.006 ppm / mortality at 0.025 ppm / mortality at 0.1 ppm / mortality at 0.4 ppm / mortality at 1.6 ppm / mortality at 6.25 ppm / mortality at 25 ppm: Rhipicephalus sanguineus
Description: Dosages were serially diluted using this same formulation.

ticks = experiment: Efficacy of combination of fipronil with amitraz against ticks on dogs; details: 10 mg/kg BW of actives, topical
Procedure: A fipronil formulation (commercial product) was prepared and stored separately from amitraz. Amitraz was formulated with the same carrier. Both parts, fipronil and amitraz in solvent(s) were stored separately and applied simultaneously. Amounts applied were calculated to keep dose at 10% (w/v) each in final formulation and 10 mg/kg BW of actives in amount applied.
In brief, treatment was applied by parting the hair on the midline of the neck, between the base of the skull and the shoulder blades, and applying the formulation directly onto the skin.

[2] = system: Ctenocephalides felis fleas; experiment: Study C: flea efficacy of Compound 1 and fipronil alone and with amitraz in dogs
Procedure: The effectiveness of Compound 1 alone, fipronil alone, Compound 1 in combination with amitraz, or fipronil in combination with amitraz, when administered once as topical solutions to dogs against induced infestations of Rhipicephalus sanguineus and Ctenocephalides felis were determined in a third clinical study. Thirty-six beagles (18 males and 18 females) were selected for the study. Six replicates of 6 animals each were formed. Treatment Group 1 dogs were treated with a placebo. Treatment Groups 2, 3, 4, 5 and 6 received their respective treatments as a topical spot-on application once on Day 0. Each formulation included diethyleneglycol monoethyl ether (transcutol) as carrier. The Treatment Groups were: Treatment Group 2: fipronil at 0.1 mL/kg body weight (10 mg/kg); Treatment Group 3: Compound 1 at 0.1 mL/kg (10 mg/kg) body weight; Treatment Group 4: Compound 1 at 0.2 mL/kg (20 mg/kg) body weight; Treatment Group 5: Compound 1 at 0.1 mL/kg (10 mg/kg) body weight plus amitraz at 0.04 mL/kg (8 mg/kg) body weight; Treatment Group 6: fipronil at 0.1 mL/kg (10 mg/kg) body weight plus amitraz at 0.04 mL/kg (8 mg/kg) body weight. Treatment was applied by parting the hair and applying the formulation(s) directly onto the skin on one spot at the midline of the neck, except for Groups 4, 5 and 6 which were applied in approximately equal volumes on two spots, one spot between the base of the skull and the shoulder blades and the other at the front of the shoulder blades.
All dogs were infested with approximately 50 Rhipicephalus sanguineus ticks on Days −1, 7, 14, 21, 28, 35, 42, 49 and 56. Dogs were also infested with approximately 100 Ctenocephalides felis fleas on Days −1, 8, 15, 22, 29, 36, 43, 50 and 57. Ectoparasites were removed and counted on Day 2, approximately 48 hours after treatment and on Days 9, 16, 23, 30, 37, 44, 51 and 58 approximately 24 hours after flea infestation and 48 hours after tick infestation. Tables 8 and 9 below show the % efficacy of formulations comprising fipronil at 0.1 ml/kg of body weight, Compound 1 at […], and fipronil and Compound 1 both at […] in combination with amitraz at 0.04 ml/kg of body weight compared to control group without active compounds. The percent reduction in flea counts of the treated groups with respect to the Control group over the study is shown in FIG. 14.

[3] = 6 h, read-out: 6 hour % Mortality Rep 1
[4] = 6 h, read-out: 6 hour % Mortality Rep 2
[5] = 6 h, read-out: 6 hour Avg. % Mortality
[6] = 24 h, read-out: 24 hour % Mortality Rep 1
[7] = 24 h, read-out: 24 hour % Mortality Rep 2
[8] = 24 h, read-out: 24 hour Avg. % Mortality
[9] = 48 h, read-out: 48 hour % Mortality Rep 1
[10] = 48 h, read-out: 48 hour % Mortality Rep 2
[11] = 48 h, read-out: 48 hour Avg. % Mortality

N#Cc1nn(-c2c(Cl)cc(C(F)(F)F)cc2Cl)c(N)c1[S+]([O-])C(F)(F)F (centres unmarked) [fipronil, 5-amino-3-cyano-1-(2,6-dichloro-4-trifluoromethylphenyl)-4-trifluoromethylsulfinylpyrazole]
>156: Synergistic Ratio (EC90) ([1]; 24 hour Eval)
10%: mortality at 6.25 ppm [1, 5]
14.7: Synergistic Ratio (EC50) ([1]; 6 hour Eval)
156.8: Synergistic Ratio (EC50) ([1]; 24 hour Eval)
85%: mortality at 25 ppm [1, 8]
55%: mortality at 1.6 ppm [1, 11]
0%: mortality at 0.0016 ppm [1, 3] | mortality at 0.006 ppm [1, 3] | mortality at 0.025 ppm [1, 3] | mortality at 0.1 ppm [1, 3] | mortality at 0.4 ppm [1, 3] | mortality at 1.6 ppm [1, 3] | mortality at 6.25 ppm [1, 3] | mortality at 0.0016 ppm [1, 4] | mortality at 0.006 ppm [1, 4] | mortality at 0.025 ppm [1, 4] | mortality at 0.1 ppm [1, 4] | mortality at 0.4 ppm [1, 4] | mortality at 1.6 ppm [1, 4] | mortality at 0.0016 ppm [1, 5] | mortality at 0.006 ppm [1, 5] | mortality at 0.025 ppm [1, 5] | mortality at 0.1 ppm [1, 5] | mortality at 0.4 ppm [1, 5] | mortality at 1.6 ppm [1, 5] | mortality at 0.0016 ppm [1, 6] | mortality at 0.006 ppm [1, 6] | mortality at 0.025 ppm [1, 6] | mortality at 0.1 ppm [1, 6] | mortality at 0.4 ppm [1, 6] | mortality at 0.0016 ppm [1, 7] | mortality at 0.006 ppm [1, 7] | mortality at 0.025 ppm [1, 7] | mortality at 0.1 ppm [1, 7] | mortality at 0.4 ppm [1, 7] | mortality at 0.0016 ppm [1, 8] | mortality at 0.006 ppm [1, 8] | mortality at 0.025 ppm [1, 8] | mortality at 0.1 ppm [1, 8] | mortality at 0.4 ppm [1, 8] | mortality at 0.0016 ppm [1, 9] | mortality at 0.006 ppm [1, 9] | mortality at 0.025 ppm [1, 9] | mortality at 0.1 ppm [1, 9] | mortality at 0.0016 ppm [1, 10] | mortality at 0.006 ppm [1, 10] | mortality at 0.025 ppm [1, 10] | mortality at 0.1 ppm [1, 10] | mortality at 0.0016 ppm [1, 11] | mortality at 0.006 ppm [1, 11] | mortality at 0.025 ppm [1, 11] | mortality at 0.1 ppm [1, 11]
99.3%: Efficacy against ticks (ticks; 23 days after treatment)
43.9%: Efficacy against ticks (ticks; 37 days after treatment)
60%: mortality at 25 ppm [1, 4] | mortality at 1.6 ppm [1, 10]
90%: mortality at 6.25 ppm [1, 6] | mortality at 25 ppm [1, 7]
32.3: Synergistic Ratio (EC90) ([1]; 48 hour Eval)
37.9%: Efficacy against ticks (ticks; 44 days after treatment)
53.9%: Efficacy against ticks (ticks; 30 days after treatment)
20%: mortality at 6.25 ppm [1, 4] | mortality at 0.4 ppm [1, 9] | mortality at 0.4 ppm [1, 10] | mortality at 0.4 ppm [1, 11]
50%: mortality at 25 ppm [1, 5] | mortality at 6.25 ppm [1, 7] | mortality at 1.6 ppm [1, 9]
>6.76: Synergistic Ratio (EC90) ([1]; 6 hour Eval)
70%: mortality at 6.25 ppm [1, 8]
99.1%: % Efficacy against fleas ([2]; Day 58, 10 mg/kg)
99.8%: % Efficacy against fleas ([2]; Day 44, 10 mg/kg)
56.4: Synergistic Ratio (EC50) ([1]; 48 hour Eval)
30%: mortality at 1.6 ppm [1, 8]
40%: mortality at 25 ppm [1, 3] | mortality at 1.6 ppm [1, 7]
100%: mortality at 6.25 ppm [1, 9] | mortality at 25 ppm [1, 9] | mortality at 6.25 ppm [1, 10] | mortality at 25 ppm [1, 10] | mortality at 6.25 ppm [1, 11] | mortality at 25 ppm [1, 11] | Efficacy against ticks (ticks; 16 days after treatment) | % Efficacy against fleas ([2]; Day 2, 10 mg/kg) | % Efficacy against fleas ([2]; Day 9, 10 mg/kg) | % Efficacy against fleas ([2]; Day 16, 10 mg/kg) | % Efficacy against fleas ([2]; Day 23, 10 mg/kg) | % Efficacy against fleas ([2]; Day 30, 10 mg/kg) | % Efficacy against fleas ([2]; Day 37, 10 mg/kg) | % Efficacy against fleas ([2]; Day 51, 10 mg/kg)
80%: mortality at 25 ppm [1, 6]
90.9%: Efficacy against ticks (ticks; 2 days after treatment)
